Measured values: PMC9919490, “Synthesis and Biological Evaluation of Novel Dispiro-Indolinones with Anticancer Activity” (Molecules, 2023)

Experiments:
[1] = Acute toxicity; format: in vivo; details: for body weight (M ± m): i.p. 2500 mg/kg
Description: Acute toxicity tests were performed on mature outbred mice (male and female). The design of the experiment is specified in Table S3 (Supplementary Materials).
To select the doses, the pilot experiments were carried out on a minimum number of animals.
The surviving animals were subjected to euthanasia and necropsy on the 29th day of the experiment to study the effects of the test agent on their internal organs.
Outbred mice (males and females) were used in the experiments. Intraperitoneal injections were applied in the posterior third of the abdomen, slightly departing from the midline. The mice were injected with 1 mL of the solution. […] The solution was prepared ex tempore. Doses were calculated for each animal separately, according to body weight data.
The group arithmetic mean (M) and standard error of the mean (m) were calculated. Statistical significance of the differences was assessed using Student’s t-test. The differences between these groups were considered significant at p < 0.05.

[2] = test system: PC3 cells; assay: MTT cytotoxicity assay, PC3 (p53 neg); format: cell-based; details: Homo sapiens, PC-3, 48 h
[3] = test system: HCT^−/− cells; assay: MTT cytotoxicity assay, HCT^−/− (p53 neg); format: cell-based; details: 48 h
[4] = test system: HCT116 tumor xenografts; assay: HCT116 xenograft model
Description: The first implantation of HCT116 tumor cells (1 × 10^6 in a volume of 0.5 mL) was performed subcutaneously into two BALB/c nude mice. The first transplantation of the xenograft (50 mg) was performed after 30 days into 2 mice (the 3rd passage was used in vivo). […] Then, in a laminar flow hood, the tumor suspension (0.5 mL, the first passage) was implanted subcutaneously into the flank area of two BALB/c nude mice (males). After a volume of 0.8–1.0 cm^3 was achieved, the nudes were passaged using 4 donor mice to obtain the desired grade and mass of the transplants. […] The tumor nests were mechanistically disintegrated to obtain 10% of the tumor samples, and then the nutrient medium was added. The inoculation was performed using individual sterile plastic syringes (1 mL) equipped with 18G suture needles. The transplantation was carried out bilaterally in the flank areas. Each mouse was inoculated with 0.5 mL (10%) of the tumor suspension (40 mg of the tumor mass for each animal). Prior to inoculation, the animals’ skin was treated with 70% alcohol. Between injections, the Petri dish containing the tumor suspension was tightly covered to avoid any contamination. Before injection, the suspension was vigorously stirred in a syringe. […]

[5] = test system: p53, PUMA, CASPASE-3 in HCTwt cells; assay: Western blot, p53 and p53-dependent apoptosis proteins; format: cell-based
Description: To verify the mechanism of cytotoxic action of the synthesized dispiro-indolinones, Western blot testing of dispiro-indolinone 29 was performed using the p53-expressing HCTwt and LNCaP cell lines. Both the p53 protein and the proteins involved in the p53-dependent process of apoptosis (i.e., BAX, NOXA, and PUMA) were determined. For comparison, similar testing was carried out for a cell line not expressing p53 (HCT^(−/−)).

[6] = test system: LNCaP cells; assay: MTT cytotoxicity assay, LNCaP (p53 pos); format: cell-based; details: Homo sapiens, LNCaP, 48 h
[7] = test system: P388; assay: P388 transplant model in mice; format: in vivo; details: for ALS (average life span): control 16.6 ± 1.8 d
Description: To preliminary estimate the antitumor effect of the compound in vivo, transplant P388 and HCT116 xenograft mouse models were used.
Prior to the trials, the animals were split into different groups (five mice per group). One group was monitored as a control population, where the animals were kept untreated, while the other groups were subjected to the tested compound. […] Four independent trials were carried out.
For the first evaluation, the sample was initially injected i.p. on day 2 of the study, and the treatment was subsequently continued during the following 9 days (total 10 d course). The typical doses were calculated considering the average body weight of the animals (20 g) and ranged between groups 1 and 3; group 4 was assigned as a control population. […] To verify the obtained results, we performed the second evaluation using the following schedule: the first group was administered i.p. with 500 mg/kg (5000 mg/kg), the second group was given 750 mg/kg (7500 mg/kg), and the third group was given 1000 mg/kg (10,000 mg/kg). We also carried out the third trial with an appropriate dose of 1000 mg/kg. For p.o. administration (trial 4), we used a single dose (170 mg/kg) of the unmodified compound; the cumulative dose was 1700 mg/kg.
DBA2 mice were used as donors of cancerous mass; a total of 50 animals were recruited. Twenty-three conventional, immunodeficient female mice (BALB/c nude, 20–23 g) were housed in RAMS and used as donors and recipients for HCT116 cells.
For the evaluation of the compound against leucosis in vivo, we used 5 and 8 passages of P388 culture. […]

[8] = first trial, i.p. 295 mg/kg (g1)
[9] = first trial, i.p. 882 mg/kg (g2)

CCOc1ccc(N2C(=O)C3(NC2=S)C(c2ccc(Cl)cc2)CN(C)C32C(=O)Nc3ccc(Br)cc32)cc1 (stereo not drawn) [Compound 29]
autopsy finding ([1]; 29th day after exposure, intraperitoneal 2500 mg/kg): increase in the liver, with signs of dystrophy
dynamics of body weight ([1]; intraperitoneal 2500 mg/kg, vs control mice): did not show differences from the control mice
clinical picture of intoxication ([1]; intraperitoneal, 2500 mg/kg): depressed state, a decrease in motor activity, and the release of porphyrin
time after which symptoms of intoxication disappeared ([1]; intraperitoneal, 2500 mg/kg): 30 to 60 min
deaths ([1]; intraperitoneal, 2500 mg/kg, observation 28 days): no deaths were registered
body weight (M ± m) ([1]; ♀, day 0): 23,8±0,54 grams
body weight (M ± m) ([1]; ♀, day 7): 24,0±1,25 grams
body weight (M ± m) ([1]; ♀, day 14): 24,5±0,91 grams
body weight (M ± m) ([1]; ♀, day 21): 24,0±1,13 grams
body weight (M ± m) ([1]; ♀, day 29): 25,0±1,18 grams
body weight (M ± m) ([1]; ♂, day 0): 24,6±0,53 grams
body weight (M ± m) ([1]; ♂, day 7): 25,2±0,49 grams
body weight (M ± m) ([1]; ♂, day 14): 26,9±0,58 grams
body weight (M ± m) ([1]; ♂, day 21): 26,0±0,63 grams
body weight (M ± m) ([1]; ♂, day 29): 24,1±0,32 grams
IC50 [2]: 9.8 ± 3.7 µM
IC50 [3]: 70.5 ± 15.2 µM
T/C ([4]; 1000 mg/kg i.p. o.d. 10 days, after 4 days, p = 0.0007): 44%
T/C (treatment/control) ([4]; sample 1000 mg/kg i.p. o.d. 10 days, after 24 h, p = 0.00005): 25%
concentration / expression of the p53 protein ([5]; HCTwt cell culture, increasing concentration, nutlin-3a 20 µM positive control): slight increase
expression of CASPASE-3 ([5]; Western blot): increase
expression of PUMA ([5]; Western blot): increase
IC50 [6]: 3.5 ± 1.9 µM
mortality at highest dose, close to the MTD ([7]; 1263 mg/kg (12,630 mg/kg cumulative), day 3 after the treatment was stopped): one mouse (bw = 19 g) dying
days on which lethal outcomes were registered [7, 8]: 16 to 24 days
LSE (lifespan extension) ([7]; first trial, i.p. 295 mg/kg (g1), p > 0.05): 17%
ALS (average life span) [7, 8]: 19.8 ± 3.0 days
days on which lethal outcomes were registered [7, 9]: 18 to 22 days
LSE (lifespan extension) ([7]; first trial, i.p. 882 mg/kg (g2), p > 0.05): 19%
ALS (average life span) [7, 9]: 19.4 ± 1.7 days
days on which deaths were observed ([7]; first trial, i.p. 1176 mg/kg (g3)): 14 to 22 days
TGRI ([7]; first trial, i.p. 1176 mg/kg (g3), subsequent three days): 40%
TGRI ([7]; first trial, i.p. 1176 mg/kg daily (g3), 24 h after the treatment was discontinued): 76%
T/C ([7]; first trial, i.p. o.d. 10 days, 295 and 882 mg/kg): < 42%
TGRI (tumor growth rate inhibition) ([7]; first trial, sample (17% compound, Pluronic F-127) i.p. o.d. 10 days, 295 mg/kg (g1) and 882 mg/kg (g2), p > 0.05): 32–37%
TGRI ([7]; i.p. 500 mg/kg): approx. 50%
Т/C% ([7]; p.o. 170 mg/kg o.d. 10 days, day 12): 84%
Tumor volume, av. volume ([7]; p.o. 170 mg/kg o.d. 10 days, day 12, control 570): 481 mm3
Tumor volume, av. volume ([7]; p.o. 170 mg/kg o.d. 10 days, day 15, control 804): 1099 mm3
TGRI ([7]; second trial, i.p. 750 mg/kg o.d., day 2 after the treatment was completed, p = 0.002): 68%
TGRI ([7]; second trial, i.p. 750 mg/kg o.d., subsequent 3 days): 62%
LSE ([7]; third trial, i.p. 1000 mg/kg o.d.): 33.33%
TGRI ([7]; third trial, i.p. 1000 mg/kg o.d. 10 days, day 2 after the treatment was completed): 81.3%
TGRI ([7]; third trial, i.p. 1000 mg/kg o.d., day 8 after the treatment was discontinued (final control timepoint)): 93%
TGRI ([7]; third trial, i.p. 1000 mg/kg o.d., following 3 days): 89%
